These results are taken from the supplement of paper PMC10307832.

Test in all cases: relative viability (nuclei count vs DMSO), 5 days (fraction); higher = more cells survive
Compound in assay [1]: C(C(=O)C(=O)O)Br [Bromopyruvate] + Nc1nc2[nH]cc(CCc3ccc(C(=O)N[C@@H](CCC(=O)O)C(=O)O)cc3)c2c(=O)[nH]1 [Pemetrexed] (partner 0.2 µM)
The gist of the method:
(§1)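 Values are medians from duplicate plates. Each reflects relative viability, defined as the nuclei count of treated wells over that of vehicle wells. Lung cancer cell lines in 1536-well plates were pin-tool dosed one day after seeding with one drug alone or with a fixed anchor-drug dose plus five library-drug doses (not always all listed) in √10 steps, then fixed, stained and imaged at 4× after 5 days.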

Compound in assay [2]: C(C(=O)C(=O)O)Br [Bromopyruvate] + C[C@@H](Oc1cc(-c2cnn(C3CCNCC3)c2)cnc1N)c1c(Cl)ccc(F)c1Cl [Crizotinib] (partner 1 µM)
The gist of the method:
as §1

Compound in assay [3]: C(C(=O)C(=O)O)Br [Bromopyruvate] + Cc1nc(Nc2ncc(C(=O)Nc3c(C)cccc3Cl)s2)cc(N2CCN(CCO)CC2)n1 [Dasatinib] (partner 0.075 µM)
The gist of the method: as §1

Compound in assay [4]: CC(O)(CS(=O)(=O)c1ccc(F)cc1)C(=O)Nc1ccc(C#N)c(C(F)(F)F)c1 [Bicalutamide] + CCNC(=O)c1noc(-c2cc(C(C)C)c(O)cc2O)c1-c1ccc(CN2CCOCC2)cc1 [Luminespib] (partner 0.01 µM)
Put shortly:
as §1

As for UMC-11, the relative viability in assay [1] (first compound 1 µM) was determined as 0.801; in assay [1] (first compound 3.162 µM), 0.841; in assay [1] (first compound 10 µM) it was 0.777; in assay [1] (first compound 31.62 µM), 0.708; in assay [1] (first compound 100 µM) it was 0.736; in assay [2] (first compound 1 µM) it was 0.727. Besides, the relative viability in assay [2] (first compound 3.162 µM) is 0.655; in assay [2] (first compound 10 µM), 0.505; in assay [2] (first compound 31.62 µM), 0.509; in assay [2] (first compound 100 µM) it was 0.52; in assay [3] (first compound 1 µM), 0.504; in assay [3] (first compound 3.162 µM) it was 0.497. Moreover, the relative viability in assay [3] (first compound 10 µM) is 0.484; in assay [3] (first compound 31.62 µM) it was 0.433; in assay [3] (first compound 100 µM), 0.495; in assay [4] (first compound 0.08 µM), 1.07; in assay [4] (first compound 0.253 µM), 1.03; in assay [4] (first compound 0.8 µM), 1.14. The relative viability in assay [4] (first compound 2.53 µM) came out at 0.949.
